Measured values as given in patent US20210147932A1, “FLUORESCENT PROBES FOR QUANTIFICATION OF DNA DAMAGE AND REPAIR” (The Board of Trustees of the Leland Stanford Junior …, priority 2019, published 2021).

Experiments:
Type in all cases: biochemical
AP-DNA = test: Oxime formation kinetics of probe with AP-DNA; conditions: 5 μM probe; for rate of oxime formation with AP DNA: Oligo 15 20 μM, 37° C.; for reaction rate of oxime formation relative to CCVJ1 (longer linker): 20 μM AP-DNA, 50 mM Tris pH 7.0
Protocol: FIG. 3 provides representative plots for calculations of k2 for Compound (1) (CCVJ1) under various buffer conditions with oligo 15. Plots were fitted in OriginPro 8.5 according to the equation derived by Larsen et. al.^5 for second-order rate constants of oxime formation. Apparent second-order rate constants were calculated as the average of three replicates.
FIG. 5A provides fluorescence real-times responses for oxime formation under varied conditions. The Time course of oxime formation between Compound (1) (CCVJ1) (5 μM) and AP-DNA (20 μM) under varied buffer conditions (50 mM) is shown. Ionic strength adjusted to 150 mM with NaCl
Next the reaction rates with CCVJ1 were evaluated. To measure oxime formation kinetics, 5 μM CCVJ1 was reacted with 20 μM AP DNA, and the resulting fluorescence time course was used to determine second-order rate constants by nonlinear regression analysis. Tris buffer was selected since it is commonly used in glycosylase assays with a salt concentration of 100 mM NaCl.
In addition to Tris buffer, oxime formation kinetics were also measured for CCVJ1 with AP DNA in a solution of a catalytic amine buffer previously shown to accelerate oxime formation. To this end, it was employed 50 mM N,N-dimethylethylenediamine (DEDA)•HCl buffered to a pH of 7.0 in place of the above Tris buffers. […] Such rapid rates of oxime formation at neutral pH are unprecedented for unactivated aldehydes.
(§1) In addition to the 5′ and 3′ neighboring bases, studies were done of the effect of the orphaned base Z paired opposite the abasic site on the UBER probe system (FIG. 10, panels C-D). Using the sequence where X=C and Y=G, the identity was varied of the base Z opposite the AP site. […] As a result, the smaller pyrimidine bases yielded a greater fluorescence light up response than the larger purine bases. It was also observed a strong effect by the opposing base on the rate of oxime formation (FIG. 10, panel D). […] This trend is in contrast to the neighboring base effect discussed above in which stronger stacking bases accelerated the rate of oxime formation.
(§2) General procedure for creating AP site DNA: A deoxyuridine containing oligonucleotide (typically 5-20 μM) was treated with 10 U/mL E. coli UDG (New England Biolabs) for 10 minutes at 37° C. in buffer to create AP site containing DNA (see below for MALDI-TOF confirmation). The hairpin was then reacted with probe from a DMSO stock solution (final DMSO concentration <5%).
Fluorescence time courses: Unless otherwise stated, fluorescence time courses were collected on a Fluoroskan Ascent Microplate Fluorometer (Thermo Fisher Scientific) with black, non-binding 384 well plates (Greiner) at a reaction volume of 60 μL with 50 mM Tris buffer pH 7 (ionic strength adjusted to 100 mM with NaCl) with a fluorescein filter set (Ex. 485, Em. 538).

[1] = test system: DNA AP site (AP site containing DNA, oligo 15); test: Fluorescence response of probe covalently attached to the AP site of a DNA hairpin; conditions: for brightness when bound to the AP site compared to CCVJ1: Oligo 15 DNA
Protocol: FIG. 2B provides emission spectra of oligonucleotide-probe conjugates compared to the emission spectra of the free probe at 2 μM concentration in 50 mM Tris buffer pH 7.0. Excitation was at 470 nm for Compound (1) (also referred to herein as CCVJ1) and 450 nm for Compounds 8 and 9 (also referred to herein as NP1 and NP2) and Compounds 4 and 6 (also referred to herein as BD1 and BD2).
To assess the potential fluorescence response of each probe, a 17mer DNA hairpin containing a single AP site was prepared and reacted it with a 10-fold excess of probe overnight. The subsequent DNA-probe conjugates were precipitated to remove excess fluorophore and full DNA labelling was confirmed by MALDI-TOF mass spectrometry (Table 1). The reacted DNAs were re-suspended in buffer to a concentration of 2 μM and the emission spectra compared with the spectra of the free probes in solution. […] In addition to its large fluorescence response, CCVJ1 is accessed readily through a facile 4-step synthesis and has good spectral overlap with fluorescein. This makes the probe accessible to a wide range of researchers and well suited to the majority of fluorescence-based instruments.
as §1, §2
Procedure for assessing fluorescence response of probes: To assess the fluorescence response of the probes, 25 μM AP site containing DNA (oligo 15) was prepared in a 20 μL solution and allowed to react with 500 μM of each probe overnight. The DNA was then precipitated by the addition of 80 μL 0.33 M sodium acetate and 300 μL ethanol and centrifuged at 21,100 g for 1 hr at 4° C. The resulting DNA pellet was washed twice with 70% EtOH and re-suspended in buffer to a concentration of 2 μM. A portion of the DNA pellet was used for MALDI-TOF analysis. The emission spectra of the probe-oligonucleotide conjugate was measured and compared against a 2 μM solution of the free probe

AP site-containing DNA = test: Competition for oxime formation between CCVJ1 and AP site-containing DNA; conditions: up to 500 μM linker, CCVJ1 5 μM, AP DNA 20 μM
Protocol: FIG. 6 provides effect of adding exemplary linker NH2CH2CH2ONH2 to the reaction of Compound (1) (CCVJ1) (5 μM) with AP site containing DNA (20 μM) in buffer.
FIG. 9 provides interaction between Compound (1) (CCVJ1) and DNA. […] (Ex. 485, Em. 538).
FIG. 14 provides effect of competing aldehydes/ketones on maximum fluorescence signal.
Additional experiments were performed to study the origins of this unusually rapid reaction. […] To test the effect that proximity between the alkoxyamine and planar portion of the probe had on oxime kinetics in our probes, probes were synthesized having variable-length linkers (CCVJ2 and CCVJ3) from aldehyde reactive linkers L2 and L3 respectively (FIG. 2A). […] To test the importance of a double-stranded DNA structure to the rate and fluorescence response, an AP-containing single-stranded DNA oligonucleotide was reacted with CCVJ1. At pH 7, CCVJ1 reacted with a second-order rate constant of 33 M^−1s^−1 with the single-stranded substrate, roughly 5-fold slower than a double-stranded hairpin with identical sequence context (FIG. 8).
To further explore the hypothesis that the oxime rate acceleration in these AP-site DNAs was related to base stacking interactions, the fluorescence was measured of CCVJ1 in the presence and absence of a non-lesion containing DNA hairpin.
Since the probe design involves conformational restriction to induce a light-up signal, it was hypothesized that off-target oxime formation with small molecules might induce a relatively small signal relative to DNA, thus providing a measure of selectivity in signaling. […] Another potential aspect is that ketones or aldehydes in the environment might compete with the DNA AP site to react with the aminooxy group, thereby consuming the free probe and reducing the maximum signal. Initial testing of the reactivity of CCVJ1 with AP site-containing DNA in the presence of increasing amounts of competing 2-deoxyribose, the closest small-molecule analogue to the DNA AP site. […] This was repeated this experiment with pyruvic acid, a highly reactive ketone and a common cellular metabolite.

OGG1 = target: T1, OGG1 (Homo sapiens, UniProt O15527); test: OGG1 activity in MCF7 lysates with CCVJ1; conditions: MCF7 lysate 0.2 mg/mL, 4 h incubation, 25 μM CCVJ1
T1 construct: host or cells: MCF-7 whole cell lysate
T1 sequence (O15527 whole entry): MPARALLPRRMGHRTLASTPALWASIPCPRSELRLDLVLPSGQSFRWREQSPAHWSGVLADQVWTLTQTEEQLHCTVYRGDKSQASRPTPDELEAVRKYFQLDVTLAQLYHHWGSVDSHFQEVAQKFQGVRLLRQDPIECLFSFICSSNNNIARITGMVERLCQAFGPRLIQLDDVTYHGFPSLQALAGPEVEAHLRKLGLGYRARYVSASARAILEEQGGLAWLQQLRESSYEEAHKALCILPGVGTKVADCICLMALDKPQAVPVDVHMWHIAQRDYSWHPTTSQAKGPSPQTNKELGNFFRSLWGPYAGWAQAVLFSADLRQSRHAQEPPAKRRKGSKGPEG
Protocol: FIG. 20 provides fluorescence measurement of MCF7 cell lysates (0.2 mg/mL) with 25 μM Compound (1) (CCVJ1) following a 4-hour incubation with 5 μM of an OGG1 hairpin substrate. The inhibitor SU0268 was used to abrogate OGG1 activity. Error bars represent standard deviation of three replicates.
Encouraged by the results, whether the UBER probe could detect endogenous glycosylase activity was tested from a more challenging target such as OGG1. It is well established that the turnover number of UNG is quite high (˜1-10 s^−1)^5 while the turnover number for many other glycosylases is quite low (0.001-0.1 s^−1). Additionally, most glycosylases, including OGG1, have very low basal expression levels in healthy cells. Given these facts, previous attempts to detect OGG1 activity in lysates have relied on a multistep signal amplification process or extended reaction times (24-48 hrs) to yield signal. […] In this case, the majority of the background signal observed was attributed to intercalation of probe into unreacted hairpin as well as genomic DNA.
(§3) Cell Lysate Experiments: HeLa or MCF-7 whole cell lysates (Santa Cruz Biotech) were used without further preparation. […] Fluorescence intensity was monitored over the course of 4 hours at 37° C.

UNG [2] = target: T2, UNG (Homo sapiens, UniProt P13051); test: UNG activity in HeLa cell lysate with CCVJ1; parameters: profile endogenous glycosylase activity in cell lysates; host or cells: HeLa whole cell lysate; conditions: 1 U/mL UGI, 0.2 mg/mL HeLa lysate, 5 μM hairpin, 25 μM CCVJ1
T2 sequence (P13051 whole entry): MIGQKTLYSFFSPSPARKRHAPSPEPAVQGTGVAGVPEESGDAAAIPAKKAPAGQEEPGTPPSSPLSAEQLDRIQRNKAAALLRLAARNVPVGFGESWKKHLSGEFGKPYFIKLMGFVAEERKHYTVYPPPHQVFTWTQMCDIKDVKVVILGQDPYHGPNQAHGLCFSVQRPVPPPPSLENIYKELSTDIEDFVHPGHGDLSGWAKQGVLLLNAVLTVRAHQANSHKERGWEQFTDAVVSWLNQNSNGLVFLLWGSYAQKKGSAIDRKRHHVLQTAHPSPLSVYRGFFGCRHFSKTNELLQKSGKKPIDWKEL
Protocol: FIG. 19, panels A-B illustrates applications of an exemplary probe for measuring multiple repair activities in cell lysates. […] The inhibitor UGI was used at a concentration of 1 U/mL to completely abolish UNG activity. […] Activity was quantified by measuring initial rate velocity using 25 μM CCVJ1 with lysate (0.2 mg/mL) and 5 μM of UNG hairpin substrate.
It was first tested whether the UBER probe's ability to report on UNG activity in whole cell lysates using the previously described UNG hairpin substrate (FIG. 19, panel A). […] To confirm that the fluorescence response originated from endogenous UNG activity and not off-target binding with proteins or spontaneous depurination, lysate was treated with CCVJ1 and a control hairpin in which the lesion had been replaced by an undamaged T:A base pair. Importantly, the control hairpin yielded no fluorescence response indicating a low degree of false positive signal. […] CCVJ1 appears to represent the first fluorogenic probe to measure real-time UNG activity in cell lysates.
as §3

UNG [3] = target: T2, UNG; test: UGI IC50 measurement in UBER probe coupled assay; parameters: purchased OriGene; conditions: UNG 5 nM, UGI 0.3 to 30 nM, initial rates after 25 minute delay, triplicate
Protocol: FIG. 15, panels A-G provides quantitative coupled assays using Compound (1) (CCJV1). Shown are data from reaction of lesion containing substrates with UNG and SMUG1 (5 nM) (panel A), MPG (100 nM) (panel B), NTH1 (500 nM) (panel C), OGG1 (100 nM) in real-time (panel D) with lesion containing DNA (2 μM) and CCVJ1 (20 μM) (panels A, B and D) or lesion containing DNA (60 μM) and CCVJ1 (20 μM) […]. […] Delay time tss of 25 minutes indicated with dotted line.
Based on the results of our neighboring base effect study, several glycosylase oligonucleotide substrates were purchased or prepared in which the identity of the base lesion X was varied to correspond to the known activities of different target glycosylases (FIG. 15, panel E). For these studies human enzymes SMUG1/UNG, OGG1, MPG and NTH1, were chosen which represent a diverse array of human glycosylases. […] Assays were carried out in a 60 μL volume in a 384 well format on a microplate reader using a fluorescein filter set. For each enzyme, it was possible to observe a robust fluorescence signal (FIG. 15, panels A-D).
To test the utility of the probe coupled assay for characterizing inhibitors, it was measured the IC50 value of the UNG inhibitor UGI (FIG. 15, panels F-G). […] In all cases, the z-factor of the assay was calculated to be >0.95, well above the threshold necessary for high throughput screening. […]

Molecule: CN(C)c1ccc(S(=O)(=O)N(C)CCON)c2nonc12 [BD1]
- rate of oxime formation with AP DNA (AP-DNA): accelerated rates of oxime formation
- fluorescence response with AP DNA [1]: substantial fluorescence responses

Molecule: CN(CCON)c1ccc(S(=O)(=O)N(C)C)c2nonc12 [BD2]
- rate of oxime formation with AP DNA (AP-DNA): accelerated rates of oxime formation
- fluorescence response with AP DNA [1]: substantial fluorescence responses

Molecule: NCCON [Compound L1, NH2CH2CH2ONH2]
- effect as competing alpha nucleophile on reaction of CCVJ1 with AP DNA (AP site-containing DNA): no effect
- effect as competing alpha nucleophile on reaction of CCVJ1 with AP DNA (AP site-containing DNA; listed as NH2CH2CH2ONH2): does not significantly compete with CCVJ1 for oxime formation

Molecule: NC(=O)c1cccc(-c2ccc(S(=O)(=O)Nc3ccc4c(c3)N(C(=O)C3CC3)CCC4)cc2)c1 [SU0268]
- effect of inhibitor on OGG1 repair activity in lysate (OGG1): completely abolished OGG1 repair activity

Molecule: N#C/C(=C\c1cc2c3c(c1)CCCN3CCC2)C(=O)NCCOCCON [CCVJ2]
- reaction rate of oxime formation relative to CCVJ1 (longer linker) (AP-DNA): slowed the reaction rate considerably
- brightness when bound to the AP site compared to CCVJ1 [1]: diminished compared to that of CCVJ1

Molecule: CN(CCON)c1ccc2c3c(cccc13)C(=O)N(CCC(=O)O)C2=O [NP1]
- rate of oxime formation with AP DNA (AP-DNA): accelerated rates of oxime formation
- fluorescence response with AP DNA [1]: substantial fluorescence responses

Molecule: N#C/C(=C\c1cc2c3c(c1)CCCN3CCC2)C(=O)NCCOCCOCCON [CCVJ3]
- reaction rate of oxime formation relative to CCVJ1 (longer linker) (AP-DNA): slowed the reaction rate considerably
- brightness when bound to the AP site compared to CCVJ1 [1]: diminished compared to that of CCVJ1

B1: UGI: the UNG inhibitor UGI; tight 1:1 binding stoichiometry; protein inhibitor (protein, UniProt P14739 1-84, looked up)
Uracil-DNA glycosylase …: MTNLSDIIEKETGKQLVIQESILMLPEEVEEVIGNKPESDILVHTAYDESTDENVMLLTSDAPEYKPWALVIQDSNGENKIKML
- effect of inhibitor on fluorescence response (UNG activity) in lysate (UNG [2]): completely ablated the fluorescence response
- IC50 (UNG [3]): 7.53 ± 0.44 nM
